Assay results taken from patent publication US20240216343A1, “ENDOTHELIAL IK AND SK CHANNEL ACTIVATION TO TREAT PULMONARY HYPERTENSION” (UNIVERSITY OF VIRGINIA PATENT FOUNDATION, priority 2023, published 2024).
Entries after “also recorded” stand apart in the source; their conditions may differ.

Key:
[1] = test system: endothelial IK/SK channels; assay: Whole-cell patch-clamp in freshly isolated ECs from small PAs; type: cell-based, mouse; settings: NS309 1 μmol/L; 250-ms voltage ramp −100 to +50 mV; ECs from N and Su+CH mice
Protocol: ECs were freshly isolated from PAs following a previously established protocol (21, 24). […] Worthington Biochemical Corporation; Lakewood; NJ; USA) for 30 minutes at 37° C. With this protocol for endothelial cell isolation, more than 95% of cells are CD31-positive. Whole-cell currents were measured at room temperature using conventional whole-cell patch-clamp electrophysiology. The bath solution consisted of 10 mmol/L HEPES, 134 mmol/L NaCl, 6 mmol/L KCl, 2 mmol/L CaCl2), 1 mmol/L MgCl2 hexahydrate, and 7 mmol/L dextrose (adjusted to pH 7.4 with NaOH). […] The pipette solution for conventional patch clamp consisted of 10 mmol/L HEPES, 123.2 mmol/L KCl, 10 mmol/L NaCl, 5.5 mmol/L MgCl2, 0.2 mmol/L CaCl2) and 5 mmol/L HEDTA (adjusted to pH 7.2 with 16.8 mm KOH) and contained 3 μm free-Ca^2+ and 1 mmol/L free-Mg^2+, as calculated using the Max-Chelator program (Chris Patton; Stanford University; Stanford; CA; USA). […] Data were acquired using a Multiclamp 700B amplifier connected to a Digidata 1550B system and analyzed using Clampfit 11.1 software (Molecular Devices, San Jose, CA, USA). […] IK/SK channel currents induced by the IK/SK channel agonist NS309 (1 μmol/L) were recorded following application of a 250-ms voltage ramp from -100 mV to +50 mV. […]

isolated perfused lungs = assay: PAP in isolated perfused lungs (ex vivo lung perfusion); parameters: species or system mouse; settings: NS309 1 μmol/L
Protocol: PAP was evaluated using an IPL-1 ex vivo murine lung perfusion system (Harvard Apparatus; Holliston; MA; USA) as previously described (22, 23). Briefly, mice were anesthetized with isoflurane, after which a tracheostomy was performed, and animals were ventilated with room air at 150 strokes/min and a stroke volume of […]. […] The main pulmonary artery was cannulated through the right ventricle, and the left ventricle was tube-vented through a small incision at the apex of the heart. The lungs were then perfused at a constant flow rate of 0.5 mL min 1 with Krebs-Henseleit buffer (11 mmol/L glucose; 1.2 mmol/L MgSO4; 1.2 mmol/L KH2PO4; 4.7 mmol/L KCl; 118 mmol/L NaCl; 1.25 mmol/L CaCl2), and 25 mmol/L […]). The perfusate buffer and isolated lungs were maintained at 37° C. using a circulating water bath. Once properly perfused and ventilated, the isolated lungs were maintained on the system for a 10-minute equilibration period, after which hemodynamic and pulmonary parameters were recorded using the PULMODYN data acquisition system (Hugo Sachs Elektronik; Breisgau; Germany).

fourth-order PAs = assay: Pressure myography of mouse fourth-order PAs
From the text: Mouse fourth-order PAs (˜50 μm) were cannulated on glass micropipettes in a pressure myography chamber (The Instrumentation and Model Facility; University of Vermont; Burlington; VT; USA) and pressurized to a physiological pressure of 15 mm Hg (24). Briefly, freshly dissected lungs were placed in ice cold HEPES buffer in a dissection plate. The left lung was stretched and pinned down, with ventral side facing up. First, pulmonary veins, and then the airway were cut open to gain access to the pulmonary arteries underneath. Once PAs were visible, they were gently separated from surrounding tissue (25). Arteries were superfused with bicarbonate-physiological salt solution (PSS; 119 mmol/L NaCl; 4.7 mmol/L KCl; 1.2 mmol/L KH2PO4; 1.2 mmol/L MgCl2 hexahydrate; 2.5 mmol/L CaCl2) dihydrate; 7 mmol/L dextrose; and 24 mmol/L NaHCO3) at 37° ° C. and bubbled with 20% O2/5% CO2 to maintain the pH at 7.4. Approximately 20% PAs from normal mice develop myogenic tone, whereas ˜65% PA from Su+CH mice show myogenic tone at 15 mm Hg. Due to the relatively small percentage of PAs from normal mice showing myogenic tone, we pre-constricted all PAs with 30 nmol/L U46619 (a thromboxane A2 receptor agonist). […] U46619 was added to the chamber immediately, before the arteries could develop myogenic tone. Before measuring vascular reactivity, arteries were treated with NS309 (1 μmol/L), a direct activator of endothelial IK/SK channels, to assess endothelial health. […] Changes in arterial diameter were recorded at a 60-ms frame rate using a charge-coupled device camera and edge-detection software (IonOptix LLC; Westwood; MA; USA) (11, 26). At the end of each experiment, Ca^2+-free PSS (119 mmol/L NaCl; 4.7 mmol/L KCl; 1.2 mmol/L KH2PO4; 1.2 mmol/L MgCl2 hexahydrate; 7 mmol/L dextrose; 24 mmol/L NaHCO3; and 5 mmol/L EGTA) was applied to assess the maximum passive diameter. Percent constriction was calculated by:
[formula] • where Diameterbefore is the diameter of the artery before treatment and Diameterafter is the diameter after treatment. Percent dilation was calculated by:
[formula] • where Diameterbasal is the stable diameter before drug treatment, Diameterdilated is the diameter after drug treatment, and Diameterca-free is the maximum passive diameter.

O=C1Nc2c(ccc(Cl)c2Cl)C1=NO [NS309, 6,7-dichloro-1H-indole-2,3-dione 3-oxime]
Outward currents at 0 mV in ECs, N vs Su+CH [1]: not different between ECs from N and Su+CH groups | PAP in isolated perfused lungs, N mice (isolated perfused lungs; N mice): not in N mice | PAP in isolated perfused lungs, Su+CH mice (isolated perfused lungs; Su+CH mice): decreased | Dilation of PAs that developed myogenic tone, N vs Su+CH (fourth-order PAs; NS309 1 μmol/L): not different between N and Su+CH groups | Dilation of small PAs, N vs Su+CH (fourth-order PAs; NS309 0.3-1 μmol/L, PAs at 15 mm Hg pre-constricted with U46619 30 nmol/L): not different between N and Su+CH mice; also recorded: not different between PAs from control and CH+Su mice
